Measured values as given in paper PMC5503984, “Characterisation of preproendothelin-1 derived peptides identifies Endothelin-Like Domain Peptide as a modulator of Endothelin-1” (Scientific Reports, 2017).
Blank lines part the entries; values can stand above or below the compound they belong to. Where no end group is shown, it is not given here.

Experiments:
[1] = system: human aortic endothelial cells; experiment: Secretion of ET-1 and proET-1 peptides from cultured human aortic endothelial cells (sandwich ELISA); assay type: cell-based; conditions: 6 h incubation
Source text: To confirm that proET-1 peptides are a reproducible index of ET-1 synthesis we compared the level of peptide production in cultured human aortic endothelial cells under conditions known to increase or decrease ET-1 expression. These experiments also confirmed that early passage human endothelial cells from primary cultures produce the same peptides with the stoichiometric relationship expected for proET-1 processing.
Figure 3 Correlation between secretion of ET-1 and proET-1 peptides from human aortic endothelial cells. Confluent cultures were incubated for 6 h in basal medium alone, or with 1 mM phosphoramidon (PHA), 2.5 or 5 µg/ml apple procyanidin pentamer (AP-2.5, AP-5), 5 µg/ml grape seed extract (GSE), 10 ng/ml TNFα or 1 ng/ml TGFß. All peptides were measured using specific sandwich ELISAs, and converted to % basal release (A,B,C,E and G). Results are mean ± SD from 4 experiments. Significant differences were determined by ANOVA with Bonferroni correction for multiple comparisons (*P = < 0.05; ***P = < 0.001). (D,F) and (H) show correlations between secretion of ET-1 and the respective proET-1 peptides under the different incubation conditions (excluding data obtained with phosporamidon).
Underlined sequences in Table 1 indicate peptide antigens used to raise specific antisera for sandwich immunoassays following previously described methodologies. Immunogens for ppET-1[93–109] and ppET-1[155–166] were prepared by conjugation via terminal Cys residues to maleimide groups on pre-treated carrier proteins. To enable conjugation of ppET-1[18–30], ppET-1[93–102] and ppET-1[169–186] by the maleimide methodology, synthetic peptides for these antigens included a C-terminal Cys-NH2 residue. Immunogens for ppET-1[42–50] and ppET-1[204–212] were prepared by glutaraldehyde conjugation to carrier protein[30]. For initial characterisation of conditioned media samples, rabbit antisera raised against ppET-1[42–50] and ppET-1[93–102] were used to establish radioimmunoassays for these peptide antigens. Subsequent investigations used sandwich ELISA methodologies with specific IgG purified from antisera using the respective peptide antigens (Table 1) coupled to SulfoLink Coupling Resin (Thermo Scientific/Pierce) or CNBr-Sepharose (GE Healthcare)[30]. Purified IgG for use as detection antibodies were biotinylated with NHS-LC-LC-biotin (Thermo Scientific/Pierce), and used for assay measurements with enhanced chemiluminescence.
EA.hy 926 and A549 cell lines were grown in Dulbecco’s modified Eagle medium with 10% fetal bovine serum at 37 °C in a humidified CO2 incubator (8% CO2, 92% air) as previously described, [30]. Human aortic endothelial cells were passaged cells from primary cultures grown in endothelial cell basal medium with growth supplement (Cell Applications Inc.), and used when confluent to compare secretion of proET-1 peptides with ET-1. Purified apple procyanidin pentamer was from Asahi Breweries (Moriya, Ibaraki 302–0106, Japan), grape seed extract was form Polyphenolics (Madera, CA), TNFα and TGFβ were from R&D Systems.

[2] = ET-1; cited from earlier work
Source text: After intravenous injection NT-proET-1 was rapidly eliminated from the circulation (t½ < 20 s). Such rapid clearance indicates uptake or metabolism. ET-1 also has a short t½ (30–60 s)[42], [43], which is due primarily to clearance by endothelial ETB receptors in the pulmonary vasculature, [45], and to a lesser extent degradation by neutral endopeptidase 24.11, particularly in post capillary veins, [47]. In the absence of receptor-mediated clearance, the high disappearance rate of NT-proET-1 is likely due to peptidase activity in the circulation, particularly in the pulmonary circulatio ...

[3] = cited from earlier work
Source text: The endothelin-like domain sequence is highly conserved with the first four Cys residues having identical spacing to ET-1 (Fig. 6)[18], [19]. There is also considerable sequence homology adjacent to the endothelin-like domain, which has been retained throughout mammalian evolution, such that human ppET-1[107–131] has 92% sequence identity with mouse ELDP and 88% with platypus over this sequence. […] However, choice of test conditions and pepti ...

[4] = RP-HPLC elution position of synthetic proET-1 peptides; assay type: physicochemical; conditions: ACE-5 C4 300 Å, 5 µm, 4.6 × 250 mm, 1 ml/min, 0.1% TFA – 10% solvent B (80% CH3CN with 0.1% TFA) over 2 min, then 10–30% B over 50 min, 1 min fractions, absorbance at 280 nm and immunoassay
Description: Figure 2 Size exclusion chromatography of peptide precipitates from (A) EA.hy 926 and (B) A549 cell lines, (C) cation exchange chromatography of conditioned media from EA.hy 926, and HPLC characterisation of pro-ET-1 peptides from EA.hy 926 cells – (D) NT-proET-1, (E) ELDP and (F) CT-proET-1. (A) and (B) proendothelin-1 peptides from EA.hy 926 and A549 cell lines were subjected to size exclusion chromatography (column 1.6 × 100 cm, Sephadex G50 superfine) equilibrated at 4 °C with 0.1 M NaCl containing 0.01 M HCl. Fractions were subjected to immunoassay for ppET-1[42–50] (open circles) and ppET-1[93–102] (closed circles). Elution positions of adrenomedullin (ADM, M r 6029), big ET-1 (bET-1, M r 4283) and ET-1 (M r 2492) are indicated. […] ELDP (red columns) and CT-proET-1 (blue columns) were measured using immunoassays. […]
ProET-1 peptides were subjected to reverse phase HPLC on C4 silica (15 µm, 300 Å pore, 1 × 25 cm; Jupiter® Phenomenex) with gradient elution at 2 ml/min: 0.1% TFA – 15% solvent B (80% CH3CN with 0.1% TFA) over 2 min, followed by 15–60% B over 45 min. […] Synthetic peptides were used to characterise elution positions of NT-proET-1, ELDP and CT-proET-1 on this second HPLC system by monitoring absorbance at 280 nm and immunoassay of fractions. […]

[5] = Clearance of proET-1 peptides after i.v. bolus in anaesthetised rats; assay type: in vivo, rat; conditions: rat; for plasma level at 30 s as % of administered peptide, relative to estimates for dilution in circulating blood: 1 nmol/kg i.v., hypothetical maximum plasma concentration 23–35 pmol/ml; for level at time molar at 0.5 min: iv, anaesthetised male Wistar rats, bolus 1 nmol/kg i.v. of each peptide as a combined solution in 0.9% saline/0.1% BSA, arterial plasma, Luminex multiplex immunoassay, mean ± SD, read-out: plasma level 30 s after injection
Description: To examine whether circulating half-lives influenced plasma levels of proET-1 peptides clearance rates were investigated in anaesthetised rats. […] Based on a circulating blood volume of 7.2 ± 0.3 ml per 100 g body weight, a mean weight of 345 ± 6 g and hematocrit of 40–60%, the hypothetical maximum plasma concentrations were 23–35 pmol/ml. However, the levels of NT-proET-1, ELDP and CT-proET-1 30 s after injection were 0.29 ± 0.02, 3.65 ± 0.23, and 11.74 ± 0.64 pmol/ml, respectively. Relative to estimates for dilution in circulating blood, these values represent ≈1%, 10–16%, and 34–51% of administered peptide for NT-proET-1, ELDP and CT-proET-1. Moreover, NT-proET-1 was almost completely cleared from the circulation in <5 min (estimated initial t½ < 20 s).
Figure 5 Comparison of clearance rates of NT-proET-1, ELDP and CT-proET-1 in anaesthetised rats. A bolus dose containing 1 nmol/kg of each proET-1 peptide as a combined solution prepared in 0.9% saline/0.1% BSA was administered i.v. and heparinised arterial blood samples (0.5 ml) were collected at 0.5, 1, 2, 5, 10, 20 and 40 min after administration of proET-1 peptides. NT-proET-1 (mauve circles), ELDP (red circles) and CT-proET-1 (blue circles) were measured by magnetic bead-based multiplex assays using Luminex methodology (values are mean ± SD, except where SD is less than the symbol size).
A multiplexed immunoassay system was used for simultaneous measurement of NT-proET-1, ELDP and CT-proET-1 in small volumes of rat plasma. Capture antibodies were conjugated to magnetic beads (region 45 – NT-proET-1, region 36 – ELDP, and region 27 – CT-proET-1) following standard protocols (Luminex Corporation). For assay capture antibody-coated magnetic beads were diluted as a premixed combination (10 µl/well) and incubated overnight at 4 °C on an orbital plate mixer with plasma (15 µl) and assay buffer (135 µl). For detection, beads were washed using a ring magnet plate washer before adding 25 µl of combined biotinylated detection antibodies and incubating for 2 h at room temperature on an orbital plate mixer.
All experiments were conducted according to the Animals (Scientific Procedures) Act 1986, UK, and approved by the UK Home Office. Clearance rates of proET-1 peptides and blood pressure effects of ELDP were determined in male Wistar rats (Charles River) anaesthetised with sodium thiopentone (120 mg/kg i.p.). Peptides were administered i.v. via a polyethylene catheter in the left femoral vein. Blood samples (0.5 ml) were collected from a catheter in the left carotid artery into chilled 1.5 ml microcentrifuge tubes containing 50 U/5 µl of heparin. Samples were centrifuged at 12,000 rpm for 2 min at 4 °C. Plasma (50 µl aliquots) samples were stored at −80 °C for subsequent analyses. Blood pressure and heart rate were recorded from the left carotid artery via a polyethylene catheter using Labchart 7.1 (AD Instruments Ltd).

[6] = 1 mM phosphoramidon, 4 experiments
[7] = 1 nmol/kg i.v. bolus, plasma sampled 0.5–40 min, two-phase clearance

Compound: CC(C)C[C@H](NP(=O)(O)O[C@@H]1O[C@@H](C)[C@H](O)[C@@H](O)[C@H]1O)C(=O)N[C@@H](Cc1c[nH]c2ccccc12)C(=O)O [phosphoramidon]
ET-1 synthesis [1, 6]: suppressed | proET-1 peptide production (NT-proET-1, ELDP, CT-proET-1) [1, 6]: no effect | increase in big ET-1 compared to basal ([1]; 1 mM phosphoramidon, confluent human aortic endothelial cells, mean ± SD from 4 experiments): 14.9 ± 2.8 fold

Compound: Endothelin-1 [ET-1]
t½ in the circulation [2]: 30 to 60 s

Compound: ppET-1[110–130]: preproendothelin [110–130] fragment tested in an earlier study (QCASQKDKKCWNFCQAGKELR; UniProt P05305 110-130, looked up, fragment)
cardiovascular effects [3]: failed to show any cardiovascular effects

elution position on RP-HPLC (fraction number) [4]: 28 fraction | estimated t½, phase 1 [5, 7]: 42 s | estimated t½, phase 2 [5, 7]: 438 s | plasma level at 30 s as % of administered peptide, relative to estimates for dilution in circulating blood [5]: 34–51% | level at time molar at 0.5 min [5]: 11.7 ± 0.64 nM
Compound: SSEEHLRQTRSETMRNSVKSSFHDPKLKGKPSRERYVTHNRAHW [CT-proET-1]

time to almost complete clearance from the circulation ([5]; 1 nmol/kg i.v. bolus): < 5 min | estimated initial t½ ([5]; 1 nmol/kg i.v. bolus, plasma): < 20 s | plasma level at 30 s as % of administered peptide, relative to estimates for dilution in circulating blood [5]: ≈ 1% | level at time molar at 0.5 min [5]: 0.29 ± 0.02 nM
Compound: APETAVLGAELSAVGENGGEKPTPSPPWRLRRS [NT-proET-1]

Compound: Apple procyanidin pentamer
synthesis/secretion of all peptides (ET-1, big ET-1 and proET-1 peptides) ([1]; apple procyanidin pentamer 2.5 or 5 µg/ml, grape seed extract 5 µg/ml, TGFß 1 ng/ml, % basal release, 4 experiments): reduced

Compound: TNFα
ET-1 and ELDP in conditioned media ([1]; TNFα 10 ng/ml, 4 experiments): did not change | big ET-1 concentrations ([1]; TNFα 10 ng/ml, 4 experiments): increased | levels of NT-proET-1 and CT-proET-1 in conditioned media ([1]; TNFα 10 ng/ml, 4 experiments): significantly increased
